According to US20030181418A1, “Pharmaceutical composition” (SANKYO COMPANY, LIMITED, priority 2002, published 2003):
Where two headings read alike, the source gives them in different places.

Test system: Lewis rat with adjuvant (Mycobacterium butyricum) induced arthritis
Assay type: in vivo
Settings: distal end of right-and-left thighbone, 21st day after adjuvant, 14th to 20th day
[1] = Example 2, celecoxib 1 mg/kg orally every day and/or Preparation 22 3.5 mg/kg intraperitoneally

Molecule	Bone density (average ± standard deviation) (Example 1, loxoprofen sodium 5 mg/kg orally and/or Preparation 4 0.1 mg/kg intraperitoneally, every day) [mg/cm^2]	Bone density (average ± standard deviation) [1] [mg/cm^2]
CC(C(=O)O)c1ccc(CC2CCCC2=O)cc1 (stereo not drawn) [Loxoprofen sodium, loxoprofen sodium]	106.5 ± 0.8	
Cc1ccc(-c2cc(C(F)(F)F)nn2-c2ccc(S(N)(=O)=O)cc2)cc1 [Celecoxib, celecoxib]		103.0 ± 1.8
Preparation 22: complex of recombinant human OCIF dimer and DS5; DS5 150 mg/ml, OCIF 5 mg/ml, 7° C., pH 10.5, 168 hours (conjugate, UniProt O00300 22-401, looked up, dimer complexed with DS5, complex of recombinant human OCIF dimer and DS5; DS5 150 mg/ml, OCIF 5 mg/ml, 7° C., pH 10.5, 168 hours) Tumor necrosis factor …: ETFPPKYLHYDEETSHQLLCDKCPPGTYLKQHCTAKWKTVCAPCPDHYYTDSWHTSDECLYCSPVCKELQYVKQECNRTHNRVCECKEGRYLEIEFCLKHRSCPPGFGVVQAGTPERNTVCKRCPDGFFSNETSSKAPCRKHTNCSVFGLLLTQKGNATHDNICSGNSESTQKCGIDVTLCEEAFFRFAVPTKFTPNWLSVLVDNLPGTKVNAESVERIKRQHSSQEQTFQLLKLWKHQNKDQDIVKKIIQDIDLCENSVQRHIGHANLTFEQLRSLMESLPGKKVGAEDIEKTIKACKPSDQILKLLSLWRIKNGDQDTLKGLMHALKHSKTYHFPKTVTQSLKKTIRFLHSFTMYKLYQKLFLEMIGNQVQSVKISCL		104.2 ± 2.1
